Assay results as given in US11542288B2, “Antiviral compounds” (priority 2020, dated 2023).
Where two headings read alike, the source gives them in different places.

Key:
[1] = target: T1, HIV-1 protease I50V/A71V (Human immunodeficiency virus type 1 group M subtype B, UniProt P12497, A559V/I538V/Q495K); assay: HIV enzyme inhibition assay (Ki), I50V/A71V variant; format: biochemical; settings: drug-resistant protease variant I50V/A71V
T1 construct: onto NL4-3 wild-type protease on a pET11a plasmid; made in house

[2] = target: T2, HIV-1 protease I84V (Human immunodeficiency virus type 1 group M subtype B, UniProt P12497, I572V/Q495K); assay: HIV enzyme inhibition assay (Ki), I84V variant; format: biochemical; settings: drug-resistant protease variant I84V
T2 construct: onto NL4-3 wild-type protease on a pET11a plasmid; made in house

[3] = target: T3, HIV-1 protease 8 Mutant (Human immunodeficiency virus type 1 group M subtype B, UniProt P12497); assay: HIV enzyme inhibition assay (Ki), 8 Mutant variant; format: biochemical; settings: drug-resistant protease variant 8 Mutant
T3 construct: onto NL4-3 wild-type protease on a pET11a plasmid with codon optimization for protein expression in Escherichia coli; A Q7K mutation was included to prevent autoproteolysis

[4] = target: HIV-1 protease KY24 (Human immunodeficiency virus type 1, UniProt P12497); settings: read-out: Ki KY24; drug-resistant protease variant KY24
[5] = target: T4, HIV-1 protease 11 Mutant (Human immunodeficiency virus type 1 group M subtype B, UniProt P12497); assay: HIV enzyme inhibition assay (Ki), 11 Mutant variant; format: biochemical; settings: drug-resistant protease variant 11 Mutant
T4 construct: onto NL4-3 wild-type protease on a pET11a plasmid with codon optimization for protein expression in Escherichia coli; A Q7K mutation was included to prevent autoproteolysis

[6] = target: T5, HIV-1 protease 10 Mutant (Human immunodeficiency virus type 1 group M subtype B, UniProt P12497); assay: HIV enzyme inhibition assay (Ki), 10 Mutant variant; format: biochemical; settings: drug-resistant protease variant 10 Mutant
T5 construct: onto NL4-3 wild-type protease on a pET11a plasmid with codon optimization for protein expression in Escherichia coli; A Q7K mutation was included to prevent autoproteolysis

[7] = tested on: wild-type HIV-1; assay: HIV antiviral assay (293T / TZM-BL luciferase); format: cell-based; settings: read-out: Antiviral WT EC50
[8] = target: T6, HTLV-1 protease (Human T-cell leukemia virus type I, UniProt Q82134, L40I); settings: read-out: Ki against HTLV-1 protease; 1 μM protein, MA/CA FRET substrate
T6 sequence (Q82134 entry or part of it L40I): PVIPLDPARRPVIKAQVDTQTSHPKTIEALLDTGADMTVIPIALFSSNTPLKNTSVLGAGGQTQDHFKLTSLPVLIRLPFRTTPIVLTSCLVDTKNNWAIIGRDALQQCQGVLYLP

[9] = target: T6, HTLV-1 protease; assay: biochemical

`CCOP(=O)(COc1ccc(C[C@H](NC(=O)O[C@H]2CO[C@H]3OCC[C@H]32)[C@H](O)CN(C[C@@H](C)CC)S(=O)(=O)c2ccc(OC)cc2)cc1)OCC` [Example 3, (3R,3aS,6aR)-hexahydrofuro [2,3-b]furan-3-yl ((2S,3R)-1-(4-((diethoxyphosphoryl)methoxy)phenyl)-3-hydroxy-4-((4-methoxy-N—((S)-2-methylbutyl)phenyl)sulfonamido)butan-2-yl)carbamate] was tested. Which Ki [1] did it give?
Its Ki is < 0.005 nM.

And the Ki [2]?
The Ki was < 0.005 nM.

What about the Ki [3] of the same compound?
The Ki was 0.78 ± 0.07 nM.

And the Ki [4]?
The Ki was 0.16 ± 0.02 nM.

And the Ki [5]?
Its Ki is 10.5 ± 0.9 nM.

What about the Ki [6] of the same compound?
Its Ki is 3.7 ± 0.3 nM.

And the EC50 [7]?
The EC50 was 7.8 nM.

For `CCOP(=O)(COc1ccc(C[C@H](NC(=O)O[C@H]2CO[C@H]3OCC[C@H]32)[C@H](O)CN(CC(CC)CC)S(=O)(=O)c2ccc3c(c2)OCO3)cc1)OCC` [Example 4, (3R,3aS,6aR)-hexahydrofuro[2,3-b]furan-3-yl ((2S,3R)-1-(4-((diethoxyphosphoryl)methoxy)phenyl)-4-(N-(2-ethylbutyl)benzo[d][1,3]dioxole-5-sulfonamido)-3-hydroxybutan-2-yl)carbamate], which Ki [1] is on record?
The Ki was < 0.005 nM.

What about the Ki [2] of the same compound?
The Ki was < 0.005 nM.

What about the Ki [3] of the same compound?
The Ki was 0.37 ± 0.03 nM.

And the Ki [4]?
The Ki was 0.08 ± 0.03 nM.

What about the Ki [5] of the same compound?
Its Ki is 6.9 ± 0.5 nM.

And the Ki [6]?
Its Ki is 1.6 ± 0.06 nM.

What about the EC50 [7] of the same compound?
The EC50 was 3.11 nM.

How did the Ki [1] turn out when `CCOP(=O)(COc1ccc(C[C@H](NC(=O)O[C@H]2CO[C@H]3OCC[C@H]32)[C@H](O)CN(C[C@@H](C)CC)S(=O)(=O)c2ccc(N)cc2)cc1)OCC` [Example 5, (3R,3aS,6aR)-hexahydrofuro[2,3-b]furan-3-yl ((2S,3R)-4-((4-amino-N—((S)-2-methylbutyl)phenyl)sulfonamido)-1-(4-((diethoxyphosphoryl)methoxy)phenyl)-3-hydroxybutan-2-yl)carbamate] was run?
The Ki was < 0.005 nM.

What about the Ki [2] of the same compound?
The Ki was < 0.005 nM.

What about the Ki [3] of the same compound?
The Ki was 13.3 ± 3.5 nM.

And the Ki [4]?
The Ki was 2.31 ± 0.09 nM.

What about the Ki [5] of the same compound?
Its Ki is 259 ± 17 nM.

And the Ki [6]?
Its Ki is 146 ± 10 nM.

And the EC50 [7]?
Its EC50 is 22.9 nM.

How did the Ki [1] turn out when `CCOP(=O)(COc1ccc(C[C@H](NC(=O)O[C@H]2CO[C@H]3OCC[C@H]32)[C@H](O)CN(C[C@@H](C)CC)S(=O)(=O)c2ccc(CO)cc2)cc1)OCC` [Example 6, (3R,3aS,6aR)-hexahydrofuro[2,3-b]furan-3-yl ((2S,3R)-1-(4-((diethoxyphosphoryl)methoxy)phenyl)-3-hydroxy-4-((4-(hydroxymethyl)-N—((S)-2-methylbutyl)phenyl)sulfonamido)butan-2-yl)carbamate] was run?
The Ki was < 0.005 nM.

And the Ki [2]?
The Ki was < 0.005 nM.

And the Ki [3]?
The Ki was 4.98 ± 0.4 nM.

And the Ki [4]?
Its Ki is 1.89 ± 0.17 nM.

And the Ki [5]?
Its Ki is 103 ± 3 nM.

And the Ki [6]?
The Ki was 52.9 ± 4.2 nM.

And the EC50 [7]?
The EC50 was 27.3 nM.

What does the source list for `CCOP(=O)(COc1ccc(C[C@H](NC(=O)O[C@H]2CO[C@H]3OCC[C@H]32)[C@H](O)CN(CC(CC)CC)S(=O)(=O)c2ccc(OC)cc2)cc1)OCC` [Example 8, (3R,3aS,6aR)-hexahydrofuro[2,3-b]furan-3-yl ((2S,3R)-1-(4-((diethoxyphosphoryl)methoxy)phenyl)-4-((N-(2-ethylbutyl)-4-methoxyphenyl)sulfonamido)-3-hydroxybutan-2-yl)carbamate]?
Ki [1]: < 0.005 nM; Ki [2]: < 0.005 nM; Ki [3]: 0.77 ± 0.06 nM; Ki [4]: 0.16 ± 0.04 nM; Ki [5]: 2.2 ± 0.2 nM; Ki [6]: 1.26 ± 0.08 nM; EC50 [7]: 5.15 nM

For `CCOP(=O)(COc1ccc(C[C@H](NC(=O)O[C@H]2CO[C@H]3OCC[C@H]32)[C@H](O)CN(CC(C)C)S(=O)(=O)c2ccc3c(c2)OCO3)cc1)OCC` [Example 9, (3R,3aS,6aR)-hexahydrofuro[2,3-b]furan-3-yl ((2S,3R)-1-(4-((diethoxyphosphoryl)methoxy)phenyl)-3-hydroxy-4-(N-isobutylbenzo[d][1,3]dioxole-5-sulfonamido)butan-2-yl)carbamate], which Ki [1] is on record?
Its Ki is < 0.005 nM.

And the Ki [2]?
Its Ki is < 0.005 nM.

And the Ki [3]?
The Ki was 2.2 ± 0.5 nM.

And the Ki [4]?
The Ki was 0.36 ± 0.05 nM.

What about the Ki [5] of the same compound?
The Ki was 63.5 ± 15.2 nM.

And the Ki [6]?
Its Ki is 4.5 ± 0.8 nM.

What about the EC50 [7] of the same compound?
Its EC50 is 5.67 nM.

For `CCOP(=O)(COc1ccc(C[C@H](NC(=O)O[C@H]2CO[C@H]3OCC[C@H]32)[C@H](O)CN(CC(C)C)S(=O)(=O)c2ccc3ncsc3c2)cc1)OCC` [Example 10, (3R,3aS,6aR)-hexahydrofuro[2,3-b]furan-3-yl ((2S,3R)-1-(4-((diethoxyphosphoryl)methoxy)phenyl)-3-hydroxy-4-(N-isobutylbenzo [d]thiazole-6-sulfonamido)butan-2-yl)carbamate], which Ki [1] is on record?
The Ki was < 0.005 nM.

And the Ki [2]?
The Ki was < 0.005 nM.

What about the Ki [3] of the same compound?
The Ki was 0.93 ± 0.2 nM.

And the Ki [4]?
The Ki was 0.23 ± 0.02 nM.

And the Ki [5]?
Its Ki is 15 ± 3.5 nM.

What about the Ki [6] of the same compound?
Its Ki is 1.9 ± 0.3 nM.

And the EC50 [7]?
The EC50 was 10.4 nM.

Which Ki [1] does the source give for `CCOP(=O)(COc1ccc(C[C@H](NC(=O)O[C@H]2CO[C@H]3OCC[C@H]32)[C@H](O)CN(C[C@@H](C)CC)S(=O)(=O)c2ccc3ncsc3c2)cc1)OCC` [Example 11, (3R,3aS,6aR)-hexahydrofuro[2,3-b]furan-3-yl ((2S,3R)-1-(4-((diethoxyphosphoryl)methoxy)phenyl)-3-hydroxy-4-(N—((S)-2-methylbutyl)benzo[d]thiazole-6-sulfonamido)butan-2-yl)carbamate] here?
The Ki was < 0.005 nM.

And the Ki [2]?
Its Ki is < 0.005 nM.

And the Ki [3]?
The Ki was 1.8 ± 0.5 nM.

What about the Ki [4] of the same compound?
Its Ki is 0.09 ± 0.01 nM.

What about the Ki [5] of the same compound?
The Ki was 9.03 ± 4.21 nM.

What about the Ki [6] of the same compound?
Its Ki is 1.2 ± 0.4 nM.

What about the EC50 [7] of the same compound?
Its EC50 is 9.93 nM.

What does the source list for `CCOP(=O)(COc1ccc(C[C@H](NC(=O)O[C@H]2CO[C@H]3OCC[C@H]32)[C@H](O)CN(CC(CC)CC)S(=O)(=O)c2ccc3ncsc3c2)cc1)OCC` [Example 12, (3R,3aS,6aR)-hexahydrofuro[2,3-b]furan-3-yl ((2S,3R)-1-(4-((diethoxyphosphoryl)methoxy)phenyl)-4-(N-(2-ethylbutyl)benzo[d]thiazole-6-sulfonamido)-3-hydroxybutan-2-yl)carbamate]?
Ki [1]: < 0.005 nM; Ki [2]: < 0.005 nM; Ki [3]: 0.25 ± 0.08 nM; Ki [6]: 0.24 ± 0.09 nM; EC50 [7]: 10.7 nM

Which results are given for `CCOP(=O)(COc1ccc(C[C@H](NC(=O)O[C@H]2CO[C@H]3OCC[C@H]32)[C@H](O)CN(CC(CC)CC)S(=O)(=O)c2ccc(CO)cc2)cc1)OCC` [Example 13, (3R,3aS,6aR)-hexahydrofuro[2,3-b]furan-3-yl ((2S,3R)-1-(4-((diethoxyphosphoryl)methoxy)phenyl)-4-((N-(2-ethylbutyl)-4-(hydroxymethyl)phenyl)sulfonamido)-3-hydroxybutan-2-yl)carbamate]?
Ki [1]: < 0.005 nM; Ki [2]: < 0.005 nM; Ki [3]: 2.2 ± 0.4 nM; Ki [4]: 0.6 ± 0.1 nM; Ki [5]: 81.2 ± 10.8 nM; Ki [6]: 32.1 ± 4.3 nM; EC50 [7]: 17 nM

What does the source list for `CC(C)(C)NC(=O)[C@@H]1CN(Cc2cccnc2)CCN1C[C@@H](O)C[C@@H](Cc1ccccc1)C(=O)N[C@H]1c2ccccc2C[C@H]1O` [IDV, indinavir, reference compound]?
Ki [8]: 62700 nM; Ki [9]: 60000 nM
